One assay concerns the target T1, TDP2 (14M_zTDP2) (Danio rerio, UniProt Q5XJA0).
T1 sequence (Q5XJA0 121-369): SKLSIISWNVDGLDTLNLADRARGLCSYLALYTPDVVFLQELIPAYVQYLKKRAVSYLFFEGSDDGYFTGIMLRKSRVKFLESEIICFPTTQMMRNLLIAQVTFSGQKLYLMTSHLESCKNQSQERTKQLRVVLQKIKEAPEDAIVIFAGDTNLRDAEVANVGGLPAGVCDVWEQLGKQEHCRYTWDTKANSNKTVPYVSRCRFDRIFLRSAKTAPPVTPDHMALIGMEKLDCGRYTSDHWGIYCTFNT
The assay can be described thus: 14M_zTDP2 fluorescence-based biochemical assay. As to conditions: for TDP2 inhibition at 50 μM: at concentrations up to 50 μM; for IC50: read-out: IC50 (TDP2 inhibition), in-house fluorescence-based biochemical assay, 25 °C, 60 min.

A further assay relates to TDP2. The following applies: read-out: previously reported IC50; previously reported value; cited from earlier work.

`O=C1NC(=O)c2ccccc2/C1=C/NCc1ccc(O)cc1` [11b, (Z)-4-(((4-hydroxybenzyl)amino)methylene)isoquinoline-1,3(2H,4H)-dione]: the “TDP2 inhibition at 50 μM” value at TDP2 (14M_zTDP2) is on record as “no inhibition”.

`O=C1NC(=O)c2ccccc2C1=Cc1ccncc1` [12c, 4-(pyridin-4-ylmethylene)isoquinoline-1,3(2H,4H)-dione]: on TDP2 (14M_zTDP2) (no concentration stated at the place), the “TDP2 inhibition” value is on record as “reasonable potency”.

Regarding `O=C1NC(=O)c2ccccc2C1=Cc1ccc[nH]1` [12d, 4-((1H-pyrrol-2-yl)methylene)isoquinoline-1,3(2H,4H)-dione], the “TDP2 inhibition at 50 μM” value on TDP2 (14M_zTDP2) is on record as “no activity”.

Take `Cn1cccc1C=C1C(=O)NC(=O)c2ccccc21` [12e, 4-((1-methyl-1H-pyrrol-2-yl)methylene)isoquinoline-1,3(2H,4H)-dione]: the “TDP2 inhibition at 50 μM” value on TDP2 (14M_zTDP2) is given as “no activity”.

Regarding `O=C1NC(=O)c2ccccc2C1=Cc1cccs1` [12f, 4-(thiophen-2-ylmethylene)isoquinoline-1,3(2H,4H)-dione], the “TDP2 inhibition at 50 μM” value on TDP2 (14M_zTDP2) is listed as “no activity”.

For the compound `O=C1NC(=O)c2ccccc2C1=Cc1ccsc1` [12g, 4-(thiophen-3-ylmethylene)isoquinoline-1,3(2H,4H)-dione], the “TDP2 inhibition at 50 μM” value on TDP2 (14M_zTDP2) is recorded as “no activity”.

As for `O=C1NC(=O)c2ccccc2C1=Cc1ccc2[nH]ncc2c1` [12h, 4-((1H-indazol-5-yl)methylene)isoquinoline-1,3(2H,4H)-dione], the IC50 (usually the concentration that gives 50% inhibition) at TDP2 (14M_zTDP2) turned out to be 19 µM.

Take `O=C1NC(=O)c2ccccc2C1=Cc1ccc2[nH]ccc2c1` [12i, 4-((1H-indol-5-yl)methylene)isoquinoline-1,3(2H,4H)-dione]: on TDP2 (14M_zTDP2), the IC50 came out at 13 µM.

As for `O=C1NC(=O)c2ccccc2C1=Cc1ccc(O)cc1` [12k, 4-(4-hydroxybenzylidene)isoquinoline-1,3(2H,4H)-dione], at TDP2 (14M_zTDP2), the IC50 came to 10 µM.

For `O=C1NC(=O)c2ccccc2C1=Cc1ccc(C(=O)O)cc1` [12q, 4-((1,3-dioxo-2,3-dihydroisoquinolin-4(1H)-ylidene)methyl)benzoic acid], the IC50 on TDP2 (14M_zTDP2) is 4.8 µM.

For the compound `O=C1Cc2ccccc2C(=O)N1` [compound 8, isoquinoline-1,3-dione, reference compound], the IC50 on TDP2 (14M_zTDP2) is 22 µM; in the assay with TDP2 it was 25 µM.
